Biological target: T1, glucosidase II (Homo sapiens, UniProt Q14697)
T1 construct: endogenous in cells; host or cells: HL60 cells
T1 sequence (Q14697 29-944): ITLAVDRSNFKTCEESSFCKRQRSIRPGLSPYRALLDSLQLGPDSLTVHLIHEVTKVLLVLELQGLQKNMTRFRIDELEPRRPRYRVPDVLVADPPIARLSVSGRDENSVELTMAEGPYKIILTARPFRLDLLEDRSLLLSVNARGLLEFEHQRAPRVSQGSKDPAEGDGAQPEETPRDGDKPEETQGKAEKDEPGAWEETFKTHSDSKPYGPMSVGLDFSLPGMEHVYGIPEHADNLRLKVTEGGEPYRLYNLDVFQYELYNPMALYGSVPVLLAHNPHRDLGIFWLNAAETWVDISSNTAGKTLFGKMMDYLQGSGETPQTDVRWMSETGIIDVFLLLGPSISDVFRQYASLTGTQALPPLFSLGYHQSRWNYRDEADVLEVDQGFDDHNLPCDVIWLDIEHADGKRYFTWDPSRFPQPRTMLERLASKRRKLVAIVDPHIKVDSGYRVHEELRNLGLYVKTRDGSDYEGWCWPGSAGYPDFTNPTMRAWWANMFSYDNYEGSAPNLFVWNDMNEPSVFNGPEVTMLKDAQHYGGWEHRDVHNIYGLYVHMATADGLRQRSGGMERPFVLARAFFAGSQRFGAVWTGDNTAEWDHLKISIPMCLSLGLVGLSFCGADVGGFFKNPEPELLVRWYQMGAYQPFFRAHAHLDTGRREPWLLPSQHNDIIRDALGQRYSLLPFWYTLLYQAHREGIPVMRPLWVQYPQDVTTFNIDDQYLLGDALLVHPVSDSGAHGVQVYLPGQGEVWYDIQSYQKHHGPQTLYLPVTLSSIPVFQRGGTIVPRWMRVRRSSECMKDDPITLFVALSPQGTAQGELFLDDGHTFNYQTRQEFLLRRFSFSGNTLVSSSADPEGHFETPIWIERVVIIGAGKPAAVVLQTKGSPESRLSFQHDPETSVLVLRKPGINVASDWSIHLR
T1 sequence (P14314 15-528 partner): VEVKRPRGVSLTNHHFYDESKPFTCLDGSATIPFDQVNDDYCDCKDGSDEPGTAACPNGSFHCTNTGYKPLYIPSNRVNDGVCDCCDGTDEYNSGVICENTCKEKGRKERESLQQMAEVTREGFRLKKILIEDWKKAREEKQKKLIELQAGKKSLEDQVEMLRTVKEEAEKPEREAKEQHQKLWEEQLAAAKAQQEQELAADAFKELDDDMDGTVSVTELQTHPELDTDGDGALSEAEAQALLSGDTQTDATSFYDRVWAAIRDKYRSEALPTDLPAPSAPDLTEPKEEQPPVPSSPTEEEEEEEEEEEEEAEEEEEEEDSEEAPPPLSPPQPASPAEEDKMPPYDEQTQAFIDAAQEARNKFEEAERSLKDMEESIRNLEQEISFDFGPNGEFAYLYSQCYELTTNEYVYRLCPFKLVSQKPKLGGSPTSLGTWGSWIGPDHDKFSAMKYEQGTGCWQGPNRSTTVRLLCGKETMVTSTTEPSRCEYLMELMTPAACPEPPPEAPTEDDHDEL
Experiment: Inhibition of glucosidase II in HL60 cells, free oligosaccharide (G1M5N) analysis by NP-HPLC
Type: cell-based
Details: 24 h
Method: The effect of an ER-glucosidase inhibitor on cells was evaluated using an assay method by modifying known methods. (H. R. Mellor et al., Cellular Effects of Deoxynojirimycin Analogues: Inhibition of N-Linked Oligosaccharide Processing and Generation of Free Glucosylated Oligosaccharides, 381 Biochem. J. 867-875 (2004). The detection of free oligosaccharides following imino sugar treatment to generate misfolded protein that is degraded in the cytosol is an accurate measure of cell ER entry and inhibition of glycoprotein processing of α-glucosidases I and II by imino sugars.
Cells were cultured to high density (×10^7 cells/ml) prior to growth in fresh medium containing NB-DNJ at varying concentrations. The cells were seeded at a lower density so as to achieve a high density at the end of the incubation period. […] The conditions for extraction of FOS were determined to maximize recovery of FOS. […]
ConA-Sepharose purified 2-AA-labeled oligosaccharides were separated by NP-HPLC using a 4.6×250 mm TSKgel Amide-80 column (Anachem, Luton, UK) with slight modifications to known methods. (D. C. Neville, et al.) The chromatography system consisted of a Waters Alliance 2695 separations module and an in-line Waters 474 fluorescence detector set at an excitation wavelength of 360 nm and emission wavelength of 425 nm. […]

[N-]=[N+]=Nc1ccc(NCCCCCCN2C[C@H](O)[C@@H](O)[C@H](O)[C@H]2CO)c([N+](=O)[O-])c1 [NAP-DNJ, N—(N′-{4′azido-2′-nitrophenyl)-6-aminohexyl)-deoxynojirimycin]
concentration at which glucosidase II is inhibited in cells: 1 to 10 µM
